Drawing on patent US10774064B2 (Cadent Therapeutics, Inc., priority 2016, dated 2020), this text covers SC100 for 36 molecules.

The target in the assay is T1, small-conductance Ca2+-activated K+ channels (SK channels, subtype 2) (Homo sapiens, UniProt Q9H2S1).
T1 construct: expressed in transfected cells; host or cells: HEK293
Briefly: whole-cell patch-clamp of ionic current through SK2 channels in HEK293 cells (SC100). Format: cell-based. As to conditions: concentration that increases the basal current by 100%; HEK293 cells expressing SK2 channels. In short, it runs like this: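 SC100, the concentration doubling basal current (a 100% increase), was taken from SK2 currents recorded by whole-cell patch-clamp in SK2-expressing HEK293 cells.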
In the case of `Cc1cc(NC2CCC(F)(F)CC2)nc(-n2nc(C)cc2C)c1` [Compound 159, N-(4,4-difluorocyclohexyl)-6-(3,5-dimethyl-1H-pyrazol-1-yl)-4-methylpyridin-2-amine], the SC100 entry is recorded as “++ (++ means 200 nM-1000 nM)”. Under `CCN(c1nc(C)cc(-n2nc(C)cc2C)n1)C1CCC(F)(F)CC1` [Compound 160, N-(4,4-difluorocyclohexyl)-4-(3,5-dimethyl-1H-pyrazol-1-yl)-N-ethyl-6-methylpyrimidin-2-amine] stands “+ (+ means >1 uM)”; under `CCN(c1cc(C)nc(-n2nc(C)cc2C)n1)C1CCC(F)(F)CC1` [Compound 161, N-(4,4-difluorocyclohexyl)-2-(3,5-dimethyl-1H-pyrazol-1-yl)-N-ethyl-6-methylpyrimidin-4-amine], “+ (+ means >1 uM)”. On to `Cc1cc(C)n(-c2nc(NC3CCC(F)(F)CC3)cc(C(F)(F)F)n2)n1` [Compound 162, N-(4,4-difluorocyclohexyl)-2-(3,5-dimethyl-1H-pyrazol-1-yl)-6-(trifluoromethyl)pyrimidin-4-amine], for which the SC100 entry is recorded as “++ (++ means 200 nM-1000 nM)”. For `Cc1cc(C)n(-c2nccc(NC3CCC(F)(F)CC3)n2)n1` [Compound 163, N-(4,4-difluorocyclohexyl)-2-(3,5-dimethyl-1H-pyrazol-1-yl)pyrimidin-4-amine], the SC100 entry was “+ (+ means >1 uM)”.

As for `Cc1cc(C)n(-c2nc(CF)cc(NC3CCC(F)(F)CC3)n2)n1` [Compound 165, N-(4,4-difluorocyclohexyl)-2-(3,5-dimethyl-1H-pyrazol-1-yl)-6-(fluoromethyl)pyrimidin-4-amine], the SC100 result is given as “+ (+ means >1 uM)”.

`Cc1cc(C)n(-c2cccc(N(C)C3CCC(F)(F)CC3)n2)n1` [Compound 166, N-(4,4-difluorocyclohexyl)-6-(3,5-dimethyl-1H-pyrazol-1-yl)-N-methylpyridin-2-amine]: the SC100 result is “+ (+ means >1 uM)”. Consider `Cc1cc(C)n(-c2nc(NC3CCC(F)(F)C3)cc(C(F)(F)F)n2)n1` (stereo not drawn) [Compound 167, N-(3,3-difluorocyclopentyl)-2-(3,5-dimethyl-1H-pyrazol-1-yl)-6-(trifluoromethyl)pyrimidin-4-amine], for which the SC100 entry is listed as “+ (+ means >1 uM)”.

Turning to `Cc1cc(C)n(-c2nc(NC3CCC(F)(F)C3)cc(C(F)F)n2)n1` (stereo not drawn) [Compound 168, N-(3,3-difluorocyclopentyl)-6-(difluoromethyl)-2-(3,5-dimethyl-1H-pyrazol-1-yl)pyrimidin-4-amine], the SC100 entry was “+ (+ means >1 uM)”. Then `CCc1cc(-n2nc(C)cc2C)nc(NC2CCC(F)(F)CC2)n1` [Compound 169, N-(4,4-difluorocyclohexyl)-4-(3,5-dimethyl-1H-pyrazol-1-yl)-6-ethylpyrimidin-2-amine], with “++ (++ means 200 nM-1000 nM)”; and `Cc1cc(C)n(-c2cc(C(F)(F)F)cc(NC3CCC(F)(F)CC3)n2)n1` [Compound 170, N-(4,4-difluorocyclohexyl)-6-(3,5-dimethyl-1H-pyrazol-1-yl)-4-(trifluoromethyl)pyridin-2-amine], with “++ (++ means 200 nM-1000 nM)”; and `CCc1cc(NC2CCC(F)(F)CC2)nc(-n2nc(C)cc2C)n1` [Compound 171, N-(4,4-difluorocyclohexyl)-2-(3,5-dimethyl-1H-pyrazol-1-yl)-6-ethylpyrimidin-4-amine], with “++ (++ means 200 nM-1000 nM)”. Under `Cc1cc(NC2CCC(F)(F)C2)nc(-n2nc(C)cc2C)n1` (stereo not drawn) [Compound 172] stands “+ (+ means >1 uM)”; under `Cc1cc(C)n(-c2cc(C(F)F)nc(NC3CCC(F)(F)CC3)n2)n1` [Compound 173], “++ (++ means 200 nM-1000 nM)”. `Cc1cc(C)n(-c2cc(C#N)cc(NC3CCC(F)(F)CC3)n2)n1` [Compound 174, 2-((4,4-difluorocyclohexyl)amino)-6-(3,5-dimethyl-1H-pyrazol-1-yl)isonicotinonitrile]: the SC100 result is “++ (++ means 200 nM-1000 nM)”.

For `Cc1cc(C)n(-c2cc(C(N)=O)cc(NC3CCC(F)(F)CC3)n2)n1` [Compound 175, 2-((4,4-difluorocyclohexyl)amino)-6-(3,5-dimethyl-1H-pyrazol-1-yl)isonicotinamide], the SC100 entry is listed as “++ (++ means 200 nM-1000 nM)”. Under `Cc1cc(C)n(-c2nc(CN3CCOCC3)cc(NC3CCC(F)(F)CC3)n2)n1` [Compound 176, N-(4,4-difluorocyclohexyl)-2-(3,5-dimethyl-1H-pyrazol-1-yl)-6-(morpholinomethyl)pyrimidin-4-amine] stands “+ (+ means >1 uM)”; under `Cc1cc(C)n(-c2nc(CN(C)C)cc(NC3CCC(F)(F)CC3)n2)n1` [Compound 177, N-(4,4-difluorocyclohexyl)-2-(3,5-dimethyl-1H-pyrazol-1-yl)-6-((dimethylamino)methyl)pyrimidin-4-amine], “+ (+ means >1 uM)”. `Cc1cc(C)n(-c2nc(CN3CCN(C)CC3)cc(NC3CCC(F)(F)CC3)n2)n1` [Compound 178, N-(4,4-difluorocyclohexyl)-2-(3,5-dimethyl-1H-pyrazol-1-yl)-6-((4-methylpiperazin-1-yl)methyl)pyrimidin-4-amine]: the SC100 result is “+ (+ means >1 uM)”.

As for `Cc1ccn(-c2cc(Cl)cc(NC3CCC(F)(F)CC3)n2)n1` [Compound 179, 4-chloro-N-(4,4-difluorocyclohexyl)-6-(3-methyl-1H-pyrazol-1-yl)pyridin-2-amine], the SC100 result is reported as “++ (++ means 200 nM-1000 nM)”. Then `Cc1cc(NC2CCC(C(F)(F)F)CC2)nc(-n2ccc(C)n2)c1` (stereo not drawn) [Compound 180, 4-methyl-6-(3-methyl-1H-pyrazol-1-yl)-N-(4-(trifluoromethyl)cyclohexyl)pyridin-2-amine], with “+ (+ means >1 uM)”. Then `Cc1cc(C)n(-c2cc(C(F)F)nc(NC3CCC(F)(F)C3)n2)n1` (stereo not drawn) [Compound 181, N-(3,3-difluorocyclopentyl)-4-(difluoromethyl)-6-(3,5-dimethyl-1H-pyrazol-1-yl)pyrimidin-2-amine], with “+ (+ means >1 uM)”; and `Cc1cc(C)n(-c2nc(NC3CCC(F)(F)C3)cc(C(N)=O)n2)n1` (stereo not drawn) [Compound 183, 6-((3,3-difluorocyclopentyl)amino)-2-(3,5-dimethyl-1H-pyrazol-1-yl)pyrimidine-4-carboxamide], with “+ (+ means >1 uM)”; and `Cc1cc(C)n(-c2nc(C#N)cc(NC3CCC(F)(F)C3)n2)n1` (stereo not drawn) [Compound 184, 6-((3,3-difluorocyclopentyl)amino)-2-(3,5-dimethyl-1H-pyrazol-1-yl)pyrimidine-4-carbonitrile], with “+ (+ means >1 uM)”. Under `Cc1cc(C)n(-c2cc(CO)cc(NC3CCC(F)(F)CC3)n2)n1` [Compound 185, (2-((4,4-difluorocyclohexyl)amino)-6-(3,5-dimethyl-1H-pyrazol-1-yl)pyridin-4-yl)methanol] stands “++ (++ means 200 nM-1000 nM)”; under `Cc1cc(C)n(-c2nc(NC3CCC(F)(F)CC3)cc(C3CC3)n2)n1` [Compound 186, 6-cyclopropyl-N-(4,4-difluorocyclohexyl)-2-(3,5-dimethyl-1H-pyrazol-1-yl)pyrimidin-4-amine], “++ (++ means 200 nM-1000 nM)”.

In the case of `Cc1cc(C)n(-c2nc(NC3CCC(F)(F)CC3)cc(N3CCOCC3)n2)n1` [Compound 187, N-(4,4-difluorocyclohexyl)-2-(3,5-dimethyl-1H-pyrazol-1-yl)-6-morpholinopyrimidin-4-amine], the SC100 result is listed as “++ (++ means 200 nM-1000 nM)”. Take `Cc1cc(C)n(-c2nc(NC3CCC(F)(F)CC3)cc(N3CCOC(C)C3)n2)n1` (stereo not drawn) [Compound 188, N-(4,4-difluorocyclohexyl)-2-(3,5-dimethyl-1H-pyrazol-1-yl)-6-(2-methylmorpholino)pyrimidin-4-amine]: the SC100 entry was “++ (++ means 200 nM-1000 nM)”. Under `Cc1cc(C)n(-c2nc(NC3CCC(F)(F)CC3)cc(OCc3cnnn3C)n2)n1` [Compound 189, N-(4,4-difluorocyclohexyl)-2-(3,5-dimethyl-1H-pyrazol-1-yl)-6-((1-methyl-1H-1,2,3-triazol-5-yl)methoxy)pyrimidin-4-amine] stands “+++ (+++ means <200 nM)”; under `Cc1cc(C)n(-c2nc(NC3CCC(F)(F)CC3)cc(N3CC(C)OC(C)C3)n2)n1` (stereo not drawn) [Compound 190, N-(4,4-difluorocyclohexyl)-2-(3,5-dimethyl-1H-pyrazol-1-yl)-6-(2,6-dimethylmorpholino)pyrimidin-4-amine], “++ (++ means 200 nM-1000 nM)”. Under `Cc1cc(C)n(-c2nc(NC3CCC(F)(F)CC3)cc(OCc3cnn(C)n3)n2)n1` [Compound 191, N-(4,4-difluorocyclohexyl)-2-(3,5-dimethyl-1H-pyrazol-1-yl)-6-((2-methyl-2H-1,2,3-triazol-4-yl)methoxy)pyrimidin-4-amine] stands “++ (++ means 200 nM-1000 nM)”. `Cc1cc(C)n(-c2nc(CO)cc(NC3CCC(F)(F)C3)n2)n1` (stereo not drawn) [Compound 192, (6-((3,3-difluorocyclopentyl)amino)-2-(3,5-dimethyl-1H-pyrazol-1-yl)pyrimidin-4-yl)methanol]: the SC100 result is recorded as “++ (++ means 200 nM-1000 nM)”. Turning to `COCc1cc(NC2CCC(F)(F)CC2)nc(-n2nc(C)cc2C)n1` [Compound 193], the SC100 result is reported as “+ (+ means >1 uM)”. Under `COCC1CN(c2cc(NC3CCC(F)(F)CC3)nc(-n3nc(C)cc3C)n2)CCO1` (stereo not drawn) [Compound 194, N-(4,4-difluorocyclohexyl)-2-(3,5-dimethyl-1H-pyrazol-1-yl)-6-(2-(methoxymethyl)morpholino)pyrimidin-4-amine] stands “++ (++ means 200 nM-1000 nM)”; under `Cc1cc(C)n(-c2cc(CN)cc(NC3CCC(F)(F)CC3)n2)n1` [Compound 195, 4-(aminomethyl)-N-(4,4-difluorocyclohexyl)-6-(3,5-dimethyl-1H-pyrazol-1-yl)pyridin-2-amine], “++ (++ means 200 nM-1000 nM)”. In the case of `Cc1cc(NC2CCC(F)(F)CC2)nc(-n2cc(F)cn2)n1` [Compound 196, N-(4,4-difluorocyclohexyl)-2-(4-fluoro-1H-pyrazol-1-yl)-6-methylpyrimidin-4-amine], the SC100 result is “+ (+ means >1 uM)”.
